# Where “and” joins values, the source holds several entries; their conditions need not be identical. Equal entries are not always repeated.
# Columns and labels:
# [1] = system: P388 lymphocytic leukemia; test: in vitro murine P388 lymphocytic leukemia (PS) cell growth inhibition; format: cell-based
# Text: The fractions obtained from the 1988-89 recollection of Cribrochalina so. (See: Pettit, G. R.; Collins, J. C.; Herald, D. L.; Doubek, D. L.; Boyd, M. R.; Schmidt, J. M.; Hooper, J. N. A.; Tackett, L. P. Can. J. Cheim. 1992, 70, 1170-1175) beginning with the 195 g dichloromethane partition fraction were re-examined guided by bioassay results using the murine P388 lymphocytic leukemia.
# (§1) Individual cell line response values are provided in the Experimental.
# [2] = system: NCI 60-cell in vitro panel; test: NCI 60-cell in vitro panel, mean panel; format: cell-based, human; conditions: Homo sapiens, 60 cell; average ±SEM from the 40 cell lines that yielded GI50 values for both 4a and 5
# Text: as §1
# [3] = system: K-562; test: NCI 60-cell screen; format: cell-based, human; conditions: Homo sapiens, K562, averaged, quadruplicate, upper limit 10^−5 M, read-out: negative log10 GI50 (converted)
# [4] = system: RPMI-8226; test: NCI 60-cell screen; format: cell-based, human; conditions: Homo sapiens, averaged, quadruplicate, upper limit 10^−5 M, read-out: negative log10 GI50 (converted)
# [5] = system: A549/ATCC; test: NCI 60-cell screen; format: cell-based, human; conditions: Homo sapiens, averaged, quadruplicate, upper limit 10^−5 M, read-out: negative log10 GI50 (converted)
# [6] = system: HOP-62; test: NCI 60-cell screen; format: cell-based, human; conditions: Homo sapiens, averaged, quadruplicate, upper limit 10^−5 M, read-out: negative log10 GI50 (converted)
# [7] = system: HOP-92; test: NCI 60-cell screen; format: cell-based, human; conditions: Homo sapiens, averaged, quadruplicate, upper limit 10^−5 M, read-out: negative log10 GI50 (converted)
# [8] = system: NCI-H460; test: NCI 60-cell screen; format: cell-based, human; conditions: Homo sapiens, averaged, quadruplicate, upper limit 10^−5 M, read-out: negative log10 GI50 (converted)
# [9] = system: NCI-H522; test: NCI 60-cell screen; format: cell-based, human; conditions: Homo sapiens, averaged, quadruplicate, upper limit 10^−5 M, read-out: negative log10 GI50 (converted)
# [10] = system: SF-268; test: NCI 60-cell screen; format: cell-based, human; conditions: Homo sapiens, averaged, quadruplicate, upper limit 10^−5 M, read-out: negative log10 GI50 (converted)
# [11] = system: SF-295; test: NCI 60-cell screen; format: cell-based, human; conditions: Homo sapiens, averaged, quadruplicate, upper limit 10^−5 M, read-out: negative log10 GI50 (converted)
# [12] = system: SF-539; test: NCI 60-cell screen; format: cell-based, human; conditions: Homo sapiens, averaged, quadruplicate, upper limit 10^−5 M, read-out: negative log10 GI50 (converted)
# [13] = system: U251; test: NCI 60-cell screen; format: cell-based, human; conditions: Homo sapiens, U-251, averaged, quadruplicate, upper limit 10^−5 M, read-out: negative log10 GI50 (converted)
# [14] = system: LOX IMVI; test: NCI 60-cell screen; format: cell-based, human; conditions: Homo sapiens, averaged, quadruplicate, upper limit 10^−5 M, read-out: negative log10 GI50 (converted)
# [15] = system: SK-MEL-5; test: NCI 60-cell screen; format: cell-based, human; conditions: Homo sapiens, averaged, quadruplicate, upper limit 10^−5 M, read-out: negative log10 GI50 (converted)
# [16] = system: OVCAR-3; test: NCI 60-cell screen; format: cell-based, human; conditions: Homo sapiens, averaged, quadruplicate, upper limit 10^−5 M, read-out: negative log10 GI50 (converted)
# [17] = system: OVCAR-8; test: NCI 60-cell screen; format: cell-based, human; conditions: Homo sapiens, averaged, quadruplicate, upper limit 10^−5 M, read-out: negative log10 GI50 (converted)
# [18] = system: 786-O; test: NCI 60-cell screen; format: cell-based, human; conditions: Homo sapiens, 786-0, averaged, quadruplicate, upper limit 10^−5 M, read-out: negative log10 GI50 (converted)
# [19] = system: ACHN; test: NCI 60-cell screen; format: cell-based, human; conditions: Homo sapiens, averaged, quadruplicate, upper limit 10^−5 M, read-out: negative log10 GI50 (converted)
# [20] = system: RXF-393; test: NCI 60-cell screen; format: cell-based, human; conditions: Homo sapiens, averaged, quadruplicate, upper limit 10^−5 M, read-out: negative log10 GI50 (converted)
# [21] = system: SN12C; test: NCI 60-cell screen; format: cell-based, human; conditions: Homo sapiens, averaged, quadruplicate, upper limit 10^−5 M, read-out: negative log10 GI50 (converted)
# [22] = system: MCF7/ADR-RES; test: NCI 60-cell screen; format: cell-based, human; conditions: Homo sapiens, averaged, quadruplicate, upper limit 10^−5 M, read-out: negative log10 GI50 (converted)
# [23] = system: HS578T; test: NCI 60-cell screen; format: cell-based, human; conditions: Homo sapiens, Hs-578T, averaged, quadruplicate, upper limit 10^−5 M, read-out: negative log10 GI50 (converted)
# [24] = system: T-47D; test: NCI 60-cell screen; format: cell-based, human; conditions: Homo sapiens, T47D, averaged, quadruplicate, upper limit 10^−5 M, read-out: negative log10 GI50 (converted)
# [25] = system: BXPC-3 (Pancreas-a); test: ASU-CRI minipanel of human cancer cell lines; format: cell-based; conditions: Homo sapiens; Pancreas-a BXPC-3; read-out: GI50
# Text: as §1
# [26] = system: DU-145 (Prostate); test: ASU-CRI minipanel of human cancer cell lines; format: cell-based; conditions: Homo sapiens; Prostate DU-145; read-out: GI50
# Text: as §1
# [27] = system: FADU (Pharynx-sq); test: ASU-CRI minipanel of human cancer cell lines; format: cell-based
# Text: as §1
# [28] = system: KM20L2 (Colon); test: ASU-CRI minipanel of human cancer cell lines; format: cell-based; conditions: Homo sapiens, KM-20L2, read-out: GI50
# Text: as §1
# [29] = system: NCI-H460 (Lung-NSC); test: ASU-CRI minipanel of human cancer cell lines; format: cell-based; conditions: Homo sapiens, read-out: GI50
# Text: as §1
# [30] = system: OVCAR-3 (Ovarian); test: ASU-CRI minipanel of human cancer cell lines; format: cell-based; conditions: Homo sapiens; Ovarian OVCAR-3; read-out: GI50
# Text: as §1
# [31] = system: SF-295 (CNS); test: ASU-CRI minipanel of human cancer cell lines; format: cell-based; conditions: Homo sapiens; CNS SF-295; read-out: GI50
# Text: as §1
# [32] = system: SK-N-SH (Neuroblast); test: ASU-CRI minipanel of human cancer cell lines; format: cell-based
# Text: as §1
# [33] = system: SW-1736 (Thyroid ca); test: ASU-CRI minipanel of human cancer cell lines; format: cell-based; conditions: Thyroid ca SW-1736
# Text: as §1
# [34] = system: Candida albicans (ATCC 90028); test: Antimicrobial disk diffusion; format: cell-based
# [35] = system: Staphylococcus aureus (ATCC 29213); test: Antimicrobial disk diffusion; format: cell-based
# [36] = system: Enterococcus faecalis (ATCC 29212); test: Antimicrobial disk diffusion; format: cell-based
# [37] = system: Streptococcus pneumoniae (ATCC 6303); test: Antimicrobial disk diffusion; format: cell-based; conditions: listed as 5
# [38] = system: Stenotrophomonas maltophilia (ATCC 13637); test: Antimicrobial disk diffusion; format: cell-based
# [39] = system: Enterobacter cloacae (ATCC 13047); test: Antimicrobial disk diffusion; format: cell-based
# [40] = system: Penicillin-resistant N. gonorrhoeae (clinical isolate); test: Antimicrobial disk diffusion; format: cell-based; conditions: listed as 5
smiles,measurement,setting,value
"C/C=C(/C)C(=O)OC[C@H]1C2=C(C=C3[C@H]4c5c(O)c(OC)c(C)c(O)c5C(=O)[C@@H](C(=O)N31)N4C)C(=O)C(C)=C(OC)C2=O [Cribrostatin 4, cribrostatin 4]",GI50,"[1]; Mouse Leukemia P388, read-out: GI50",24.6 µg/mL
same,PS ED50 (P388 ED50),"[1]; in vitro P388 lymphocytic leukemia, listed as cribrostatin 4",25 µg/mL and 24 µg/mL
same,GI50,[2],5.01 µM
same,GI50,[3],4.37 µM
same,GI50,[4],6.17 µM
same,GI50,[5],8.71 µM
same,GI50,[6],7.59 µM
same,GI50,[7],8.13 µM
same,GI50,[8],7.59 µM
same,GI50,[9],4.17 µM
same,GI50,[10],9.55 µM
same,GI50,[11],8.91 µM
same,GI50,[12],5.75 µM
same,GI50,[13],6.46 µM
same,GI50,[14],3.31 µM
same,GI50,[15],8.13 µM
same,GI50,[16],3.63 µM
same,GI50,[17],4.27 µM
same,GI50,[18],6.17 µM
same,GI50,[19],7.94 µM
same,GI50,[20],5.25 µM
same,GI50,[21],7.08 µM
same,GI50,[22],6.76 µM
same,GI50,[23],8.71 µM
same,GI50,[24],2.09 µM
same,GI50,[25],5.6 µg/mL
same,GI50,[26],> 10 µg/mL
same,GI50,[27],0.26 µg/mL
same,GI50,[28],> 10 µg/mL
same,GI50,[29],> 10 µg/mL
same,GI50,[30],2.2 µg/mL
same,GI50,[31],> 10 µg/mL
same,GI50,[32],3.6 µg/mL
same,GI50,[33],> 10 µg/mL
same,Minimum inhibitory concentration,[34],* (No inhibition at 100 μg/disk)
same,Minimum inhibitory concentration,[35],* (No inhibition at 100 μg/disk)
same,Minimum inhibitory concentration,[36],* (No inhibition at 100 μg/disk)
same,Minimum inhibitory concentration,[37],6.25-12.5 μg/disk
same,Minimum inhibitory concentration,[38],* (No inhibition at 100 μg/disk)
same,Minimum inhibitory concentration,[39],* (No inhibition at 100 μg/disk)
same,Minimum inhibitory concentration,[40],1.56-3.12 μg/disk
